“Also recorded” adds a separate entry of the source.
test system: human LINE-1; experiment: Human LINE-1 retrotransposition assay (HeLa cell-based dual-luciferase reporter); details: HeLa cells, reporter plasmid pYX017, 72 h incubation, Firefly/Renilla luciferase; read-out: Human LINE-1 IC50 (μM), Human L1 activity inhibition
Procedure: Islatravir and other compounds were tested for inhibition of retrotransposition activity of human LINE-1 in HeLa cells according to the following procedure.
HeLa cervical cancer cells were cultivated at 37° C. in a humidified 5% CO2 incubator in Dulbecco's Modified Eagle's Medium (DMEM)—high glucose, with 4500 mg/L glucose, L-glutamine, sodium pyruvate and sodium bicarbonate (Sigma), supplemented with 10% of heat inactivated fetal bovine serum (Thermo Fisher).
Assays were performed using reporter plasmid pYX017 as described (Xie, et al., 2011) with several modifications. The reporter assay was performed in 96-well white optical bottom plates. HeLa cells were seeded in wells 24 h prior to transfection and compound treatment so that cells were approximately 30% confluent on the day of transfection. Different cell plating densities were tested and a density of 2×10^3 cells was determined to be optimal.
Compounds were resuspended in DMSO. Serial dilutions (1:3) were prepared in DMSO. Medium containing different concentrations of the compounds were prepared by adding 2 μl of the compound dilution to 1 ml of the culture medium. The final concentration of DMSO in the medium was 0.2%.
FuGENE® HD transfection reagent (Promega, E2311, Lot 382574 and Lot 397842) was used to transfect the plasmids into the cells. The transfection reagent: DNA mixture was prepared in OpiMEM (Thermo Fisher) according to manufacturer's instructions. Different ratios of transfection reagent to DNA were tested and a ratio of 3:1 was determined to be optimal. Culture medium was removed from the cells and discarded. The transfection reagent: DNA mixture (5 μl) was mixed with the compound containing medium (100 μl/well) and this was added onto the cells of each well. Cells were incubated at 37° C./5% C02 for different incubation time. A 72 h incubation time was determined to be optimal.
Luciferase reporter activity was quantified with the Dual-Luciferase® Reporter Assay System (Promega) according to manufacturer's instructions for multiwell plates except that cells were lysed directly on the multiwell plate with 30 μl of the passive lysis buffer (PLB) for 20 min at room temperature, with gentle shaking to ensure complete cell lysis.
Firefly and Renilla luciferase signals were measured using a SpectraMax i3x Multi-Mode Microplate Reader. Integration times of 100 ms and 10 ms were used to measure the Firefly and Renilla signals respectively. Relative L1 activity is calculated as Firefly/Renilla*1000 or Firefly/Renilla*10,000. Dose response inhibition data were fit to a four parameter logistic equation using non-linear regression (using Graphpad Prism 8), to determine IC50 values for each inhibitor.

Row | Compound | IC50 [µM]
1 | C[C@H](Cn1cnc2c(N)ncnc21)OCP(=O)(O)O [Tenofovir] | 2.77

same assay, conditions: HeLa cells, summary of Table 1

Row | Compound | human LINE-1 inhibitor activity compared to the other reverse transcriptase inhibitors tested (in words)
2 | C#C[C@@]1(CO)C=C[C@H](n2cc(C)c(=O)[nH]c2=O)O1 [Censavudine, 4′-ethynylstavudine] | unexpectedly better human LINE-1 inhibitor activity; also recorded: surprisingly potent
3 | C#C[C@]1(CO)O[C@@H](n2cnc3c(N)nc(F)nc32)C[C@@H]1O [Islatravir, 2′-deoxy-4′-ethynyl-2-fluoroadenosine] | unexpectedly better human LINE-1 inhibitor activity

same assay, conditions: HeLa cells, summary of Table 1; listed as islatravir

Row | Compound | human LINE-1 inhibitor activity compared to the other reverse transcriptase inhibitors tested (in words)
4 | C#C[C@]1(CO)O[C@@H](n2cnc3c(N)nc(F)nc32)C[C@@H]1O [Islatravir, 2′-deoxy-4′-ethynyl-2-fluoroadenosine] | surprisingly potent

same assay, conditions: Homo sapiens; HeLa cells, reporter plasmid pYX017, 72 h incubation, Firefly/Renilla luciferase; read-out: Human LINE-1 IC50 (μM), Human L1 activity inhibition

Row | Compound | IC50 [µM]
5 | Cc1ccnc2c1NC(=O)c1cccnc1N2C1CC1 [Nevirapine] | > 50
6 | O=C(NCc1c(F)cc(F)cc1F)c1cn2c(c(O)c1=O)C(=O)N1[C@H]3CC[C@H](C3)O[C@@H]1C2 [Bictegravir] | > 12.4
7 | CC(C)OC(=O)OCOP(=O)(CO[C@H](C)Cn1cnc2c(N)ncnc21)OCOC(=O)OC(C)C [Tenofovir disoproxil] | 0.2
8 | C#C[C@@]1(CO)C=C[C@H](n2cc(C)c(=O)[nH]c2=O)O1 [Censavudine, 4′-ethynylstavudine] | 0.07
9 | Cc1cc(/C=C/C#N)cc(C)c1Nc1ccnc(Nc2ccc(C#N)cc2)n1 [Rilpivirine] | > 15.1
10 | C#C[C@]1(CO)O[C@@H](n2cc(C)c(O)nc2=O)C[C@@H]1O [Cpd. No. 2] | 0.393
11 | C#C[C@]1(CO)O[C@@H](n2ccc(N)nc2=O)C[C@@H]1O [Cpd. No. 7, 4-amino-1-((2R,4S,5R)-5-ethynyl-4-hydroxy-5 (hydroxymethyl)tetrahydrofuran-2-yl)pyrimidin-2(1H)-one] | 0.0091
12 | CC[C@]1(CO)O[C@@H](n2cc(C)c(=O)[nH]c2=O)C[C@@H]1O [Cpd. No. 26] | 2
13 | C[C@@H]1CCO[C@H]2Cn3cc(C(=O)NCc4ccc(F)cc4F)c(=O)c(O)c3C(=O)N12 [Dolutegravir sodium] | > 9.38
14 | C#C[C@]1(CO)O[C@@H](n2cnc3c(O)nc(N)nc32)C[C@@H]1O [Cpd. No. 13] | 0.00051
15 | Nc1nc(=O)n([C@@H]2C=C[C@H](CO)O2)cc1F [Elvucitabine] | 0.09
16 | O=C1Nc2ccc(Cl)cc2[C@@](C#CC2CC2)(C(F)(F)F)O1 [Efavirenz] | > 0.25
17 | C=C[C@]1(CO)O[C@@H](n2cnc3c(N)nc(F)nc32)C[C@@H]1O [Cpd. No. 20] | 0.011
18 | Cc1cn([C@H]2C[C@H](N=[N+]=[N-])[C@@H](CO)O2)c(=O)[nH]c1=O [Zidovudine] | 0.81
19 | CC[C@]1(CO)O[C@@H](n2cnc3c(O)nc(N)nc32)C[C@@H]1O [Cpd. No. 27] | 0.003
20 | C#C[C@]1(CO)O[C@@H](n2cc(F)c(N)nc2=O)C[C@@H]1O [Cpd. No. 9] | 0.0209
21 | Cc1cn([C@H]2C=C[C@@H](CO)O2)c(=O)[nH]c1=O [Stavudine] | 0.75
22 | Nc1ccn([C@@H]2CS[C@H](CO)O2)c(=O)n1 [Lamivudine] | 0.64
23 | C=C[C@]1(CO)O[C@@H](n2ccc(N)nc2=O)C[C@@H]1O [Cpd. No. 24] | 0.008
24 | C#C[C@]1(CO)O[C@@H](n2cc(Br)c(O)nc2=O)C[C@@H]1O [Cpd. No. 4] | 0.489
25 | Cc1nnc(C(=O)NC(C)(C)c2nc(C(=O)NCc3ccc(F)cc3)c(O)c(=O)n2C)o1 [Raltegravir potassium] | > 9.86
26 | C#C[C@]1(CO)O[C@@H](n2cnc3c(N)ncnc32)C[C@@H]1O [Cpd. No. 23] | > 50

— US20240285664A1, “LINE-1 INHIBITORS AS COGNITIVE ENHANCERS” (TRANSPOSON THERAPEUTICS, INC., priority 2021, published 2024)
